Results published in patent US20200369626A1 (Washington University, priority 2019, published 2020).

Assays:
[1] = molecular target: T1, S1PR2 (Homo sapiens, UniProt O95136); assay: competitive [^32P]S1P binding assay on cell membranes, S1PR2; settings: Table 5; read-out: IC50 S1PR2
T1 construct: purchased

[2] = molecular target: T2, S1PR1 (Homo sapiens, UniProt P21453); assay: competitive [^32P]S1P binding assay on cell membranes, S1PR1; settings: Table 5
T2 construct: purchased
Method: (§1) The test compounds were dissolved in DMSO and diluted into test samples with increasing concentrations with assay buffer. Commercial cell membranes expressing recombinant human S1PR were diluted with assay buffer to make a 20-40 μg/mL of solution. […] The plate was incubated for 60 min at room temperature with shaking and terminated by collecting the membranes onto 96-well glass fiber (GF/B) filtration plates (Millipore, Billerica, Mass.). Each filter was washed with 200 μL of assay buffer for a total of five washes. The filter bound radionuclide was measured by a Beckman LS 3801 scintillation counter using Cherenkov counting. The IC50 values were fitted from GraphPad Prism 6 using one site Nonlinear Regression.

[3] = molecular target: T3, S1PR3 (Homo sapiens, UniProt Q99500); assay: competitive [^32P]S1P binding assay on cell membranes, S1PR3; settings: Table 5
T3 construct: purchased
T3 sequence (Q99500 whole entry): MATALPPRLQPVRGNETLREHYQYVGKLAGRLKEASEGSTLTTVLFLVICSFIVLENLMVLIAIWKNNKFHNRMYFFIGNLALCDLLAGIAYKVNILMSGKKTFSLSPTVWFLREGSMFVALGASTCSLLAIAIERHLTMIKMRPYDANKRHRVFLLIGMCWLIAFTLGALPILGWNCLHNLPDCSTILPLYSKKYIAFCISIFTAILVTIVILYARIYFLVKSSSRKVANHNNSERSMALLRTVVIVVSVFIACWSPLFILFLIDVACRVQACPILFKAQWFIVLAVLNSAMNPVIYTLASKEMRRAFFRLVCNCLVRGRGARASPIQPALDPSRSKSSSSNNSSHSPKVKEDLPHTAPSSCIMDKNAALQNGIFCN
Method: as §1

T2 sequence (P21453 whole entry): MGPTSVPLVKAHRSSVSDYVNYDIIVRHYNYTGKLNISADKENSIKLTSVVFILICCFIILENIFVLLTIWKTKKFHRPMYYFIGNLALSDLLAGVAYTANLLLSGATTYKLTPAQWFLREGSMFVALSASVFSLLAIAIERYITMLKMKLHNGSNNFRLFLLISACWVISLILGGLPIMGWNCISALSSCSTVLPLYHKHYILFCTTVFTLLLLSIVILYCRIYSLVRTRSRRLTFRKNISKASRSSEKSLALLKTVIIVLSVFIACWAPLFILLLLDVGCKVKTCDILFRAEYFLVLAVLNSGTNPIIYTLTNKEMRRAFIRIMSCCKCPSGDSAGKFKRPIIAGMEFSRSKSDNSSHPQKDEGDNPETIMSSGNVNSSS
T1 sequence (O95136 whole entry): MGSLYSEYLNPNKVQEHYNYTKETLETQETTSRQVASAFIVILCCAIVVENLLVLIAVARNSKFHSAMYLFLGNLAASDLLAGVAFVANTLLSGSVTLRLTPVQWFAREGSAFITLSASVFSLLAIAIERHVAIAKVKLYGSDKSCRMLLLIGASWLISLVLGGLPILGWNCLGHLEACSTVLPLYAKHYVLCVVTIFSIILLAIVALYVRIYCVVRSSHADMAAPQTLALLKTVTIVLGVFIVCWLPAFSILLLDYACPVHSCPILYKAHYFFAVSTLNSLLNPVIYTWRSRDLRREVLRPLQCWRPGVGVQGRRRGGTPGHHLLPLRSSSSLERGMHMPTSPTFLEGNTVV

Compound | IC50 [1] | IC50 [2] | IC50 [3]
CNC(=O)c1ccc(Oc2cc(NC(=O)N3CCC(O)(CC(C)C)CC3)cc(C(F)(F)F)c2)cc1 [TZ51-024] | 284 ± 27 nM | > 1000 nM | > 1000 nM
CC(C)CC1(O)CCN(C(=O)Nc2cc(Oc3ccc(F)cc3)cc(C(F)(F)F)c2)CC1 [TZ51-032] | 165 ± 35 nM | > 1000 nM | > 1000 nM
CCC(CC)CC1(O)CCN(C(=O)Nc2cc(Oc3ccc(S(C)(=O)=O)cc3)cc(C(F)(F)F)c2)CC1 [TZ51-033] | 296 ± 32 nM | > 1000 nM | > 1000 nM
CC(C)CC1(O)CCN(C(=O)Nc2cc(Oc3ccc(S(C)(=O)=O)cc3)cc(C(F)(F)F)c2)CC1 [TZ51-035] | 270 ± 72 nM | > 1000 nM | > 1000 nM
CCC(CC)CC1(O)CCN(C(=O)Nc2cc(Oc3ccc(F)cc3)cc(Oc3ccc(C(=O)NCCF)cc3)c2)CC1 [TZ57-028] |  | > 1000 nM | > 1000 nM
CC(C)CC1(O)CCN(C(=O)Nc2cc(Oc3ccc(F)cc3)cc(Oc3ccc(C(=O)NCCF)cc3)c2)CC1 [TZ57-029] | 195 ± 36 nM | > 1000 nM | > 1000 nM
CC(C)CC1(O)CCN(C(=O)Nc2cc(Oc3ccc(F)cc3)cc(Sc3ccc(S(C)(=O)=O)cc3)c2)CC1 [TZ57-031] |  | > 1000 nM | > 1000 nM
CCC(CC)CC1(O)CCN(C(=O)Nc2cc(Oc3ccc(F)cc3)cc(Sc3ccc(S(C)(=O)=O)cc3)c2)CC1 [TZ57-032] |  | > 1000 nM | > 1000 nM
CC(C)CC1(O)CCN(C(=O)Nc2cc(Oc3ccc(OCCF)cc3)cc(Oc3ccc(S(C)(=O)=O)cc3)c2)CC1 [TZ57-033] | 525 ± 119 nM | > 1000 nM | > 1000 nM
CCC(CC)CC1(O)CCN(C(=O)Nc2cc(Oc3ccc(OCCF)cc3)cc(Oc3ccc(S(C)(=O)=O)cc3)c2)CC1 [TZ57-034] | 418 ± 118 nM | > 1000 nM | > 1000 nM
COc1cc(OC)c(NC(=O)Cn2c(=O)n(CCF)c(=O)c3ccccc32)cc1Cl [TZ62-083] | > 1000 nM |  | 
COc1cc(OC)c(NC(=O)Cn2c(=O)n(C)c(=O)c3ccccc32)cc1Cl [TZ62-084] | > 1000 nM |  | 
CCn1c(=O)c2ccccc2n(CC(=O)Nc2cc(Cl)c(OC)cc2OC)c1=O [TZ62-087] | > 1000 nM |  | 
COc1cc(OC)c(NC(=O)Cn2c(=O)n(CCCC(=O)NC3CCCC3)c(=O)c3ccccc32)cc1Cl [TZ62-090] | 76 ± 19 nM |  | 
COc1cc(OC)c(NC(=O)Cn2c(=O)n(CCCC(=O)NC3CCCC3)c(=O)c3cc(Cl)ccc32)cc1Cl [TZ62-091] | > 1000 nM |  | 
O=C(O)Cn1c(=O)c2ccccc2n(CC(=O)Nc2cc(Cl)nc(Cl)c2)c1=O [TZ62-092] | > 1000 nM |  | 
COc1ccccc1NC(=O)Cn1c(=O)c2ccccc2n(CC(=O)Nc2cc(Cl)nc(Cl)c2)c1=O [TZ62-093] | > 1000 nM |  | 
CCOc1ccc(C(=O)Cn2c(=O)n(Cc3ccccc3)c(=O)c3ccccc32)cc1Cl [TZ62-097] | > 1000 nM |  | 
CCOc1ccc(C(=O)Cn2c(=O)n(C)c(=O)c3ccccc32)cc1Cl [TZ62-098] | > 1000 nM |  | 
CCOc1ccc(C(=O)Cn2c(=O)n(CC)c(=O)c3ccccc32)cc1Cl [TZ62-099] | > 1000 nM |  | 
CCOc1ccc(C(=O)Cn2c(=O)n(CCF)c(=O)c3ccccc32)cc1Cl [TZ62-100] | > 1000 nM |  | 
COc1cc(OC)c(NC(=O)Cn2c(=O)n(CCN3CCOCC3)c(=O)c3ccccc32)cc1Cl [TZ62-102] | > 1000 nM |  | 
CCOc1ccc(C(=O)Cn2c(=O)n(CC(=O)Nc3ccccc3OC)c(=O)c3ccccc32)cc1Cl [TZ62-114] | 49.8 ± 4.9 nM |  | 
CCOc1ccc(C(=O)Cn2cc(C(=O)O)c(=O)c3ccccc32)cc1Cl [TZ62-120] | 270 ± 210 nM |  | 
COc1ccc(NC(=O)c2cn(CC(=O)Nc3cc(Cl)c(OC)cc3OC)c3ccccc3c2=O)cc1 [TZ62-125] | > 1000 nM |  | 
COc1ccc2c(c1)c(=O)c1ccccc1n2CC(=O)Nc1cc(Cl)c(OC)cc1OC [TZ65-032] | > 1000 nM |  | 
COc1cc(OC)c(NC(=O)Cn2c(=O)n(CC(=O)Nc3ccc(I)cc3)c(=O)c3ccccc32)cc1Cl [TZ65-033] | 16.9 ± 5.6 nM |  | 
COc1cc(OC)c(NC(=O)Cn2c(=O)n(CC(=O)Nc3ccc(OCCF)cc3)c(=O)c3ccccc32)cc1Cl [TZ65-049] | 10 ± 2.4 nM |  | 
